Measurements: patent US20100267561A1, “HERBICIDAL PYRIDAZINONE DERIVATIVES” (priority 2007, published 2010)

Columns and labels:
Format in all cases: in vivo
[1] = tested on: Russian thistle (Salsola iberica); test: Test B pre-/postemergence plant response; settings: Preemergence
Excerpt: (§1) Seeds of plant species selected from blackgrass (Alopecurus myosuroides), downy bromegrass (Bromus tectorum), green foxtail (Setaria viridis), Italian ryegrass (Lolium multiflorum), wheat (Triticum aestivum), wild oat (Avena fatua), catchweed bedstraw (Galium aparine), bermudagrass (Cynodon dactylon), surinam grass (Brachiaria decumbens), cocklebur (Xanthium strumarium), corn (Zea mays), large crabgrass (Digitaria sanguinalis), woolly cupgrass (Eriochloa villosa), giant foxtail (Setaria faberii), goosegrass (Eleusine indica), johnsongrass (Sorghum halepense), kochia (Kochia scoparia), lambsquarters (Chenopodium album), morningglory (Ipomoea coccinea), eastern black (E.B.) nightshade (Solanum ptycanthum), yellow nutsedge (Cyperus esculentus), pigweed (Amaranthus retroflexus), common ragweed (Ambrosia elation), Russian thistle (Salsola iberica), soybean (Glycine max), common (oilseed) sunflower (Helianthus annuus), and velvetleaf (Abutilon theophrasti) were planted and treated preemergence with test chemicals formulated in a non-phytotoxic solvent mixture which included a surfactant.
(§2) At the same time, plants selected from these crop and weed species and also winter barley (Hordeum vulgare), canarygrass (Phalaris minor), chickweed (Stellaria media) and windgrass (Apera spica-venti) were treated with postemergence applications of some of the test chemicals formulated in the same manner. Plants ranged in height from 2 to 18 cm (1- to 4-leaf stage) for postemergence treatments.
(§3) Plant species in the flooded paddy test consisted of rice (Oryza sativa), umbrella sedge (Cyperus difformis), ducksalad (Heteranthera limosa) and barnyardgrass (Echinochloa crus-galli) grown to the 2-leaf stage for testing. At time of treatment, test pots were flooded to 3 cm above the soil surface, treated by application of test compounds directly to the paddy water, and then maintained at that water depth for the duration of the test. Treated plants and controls were maintained in a greenhouse for 13 to 15 days, after which time all species were compared to controls and visually evaluated. Plant response ratings, summarized in Table B, are based on a scale of 0 to 100 where 0 is no effect and 100 is complete control. A dash (-) response means no test result.

[2] = tested on: lambsquarters (Chenopodium album); test: Test B pre-/postemergence plant response
Excerpt: as §1, §2, §3

[3] = tested on: common ragweed (Ambrosia elation); test: Test B pre-/postemergence plant response
Excerpt: as §1, §2, §3

[4] = tested on: Italian ryegrass (Lolium multiflorum); test: Test B pre-/postemergence plant response
Excerpt: as §1, §2, §3

[5] = tested on: cocklebur (Xanthium strumarium); test: Test B pre-/postemergence plant response
Excerpt: as §1, §2, §3

[6] = tested on: soybean (Glycine max); test: Test B pre-/postemergence plant response
Excerpt: as §1, §2, §3

[7] = tested on: bermudagrass (Cynodon dactylon); test: Test B pre-/postemergence plant response; settings: for Bermudagrass plant response rating: preemergence, 0-100 scale
Excerpt: as §1, §2, §3

[8] = tested on: large crabgrass (Digitaria sanguinalis); test: Test B pre-/postemergence plant response
Excerpt: as §1, §2, §3

[9] = tested on: velvetleaf (Abutilon theophrasti); test: Test B pre-/postemergence plant response
Excerpt: as §1, §2, §3

[10] = tested on: goosegrass (Eleusine indica); test: Test B pre-/postemergence plant response
Excerpt: as §1, §2, §3

[11] = tested on: umbrella sedge (Cyperus difformis); test: Test B flooded paddy test plant response
Procedure, shortened: (§4)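 Paddy-water application to 2-leaf plants in pots held under 3 cm of flooding; response is a 0–100 visual control rating against controls after 13 to 15 days, and a dash marks a missing result.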

[12] = tested on: barnyardgrass (Echinochloa crus-galli); test: Test B flooded paddy test plant response
Procedure, shortened: as §4

[13] = tested on: rice (Oryza sativa); test: Test B flooded paddy test plant response
Procedure, shortened: as §4

[14] = tested on: ducksalad (Heteranthera limosa); test: Test B flooded paddy test plant response
Procedure, shortened: as §4

[15] = 31 g ai/ha, 0 to 100 scale, 0 no effect, 100 complete control
[16] = Postemergence, 31 g ai/ha, scale 0 to 100, 0 no effect, 100 complete control
[17] = Postemergence, 62 g ai/ha, scale 0 to 100
[18] = Postemergence, 125 g ai/ha, scale 0 to 100
[19] = Postemergence, 250 g ai/ha, scale 0 to 100
[20] = Preemergence, 31 g ai/ha, 0 to 100 scale, 0 no effect, 100 complete control
[21] = Preemergence, 62 g ai/ha, scale 0 to 100
[22] = Preemergence, 125 g ai/ha, scale 0 to 100
[23] = Preemergence, 250 g ai/ha, scale 0 to 100
[24] = Flood (flooded paddy test), 62 g ai/ha, scale 0 to 100, 0 no effect, 100 complete control
[25] = Flood (flooded paddy test), 125 g ai/ha, scale 0 to 100, 0 no effect, 100 complete control
[26] = Flood (flooded paddy test), 250 g ai/ha, scale 0 to 100, 0 no effect, 100 complete control
[27] = Flood, 31 g ai/ha, scale 0 to 100

Compound: Cc1nn(C)c(=O)c(-n2nc(-c3ccc(Cl)cc3)cc2C)c1O [Compound 15]
- Plant response rating, Russian Thistle [1, 15]: 0
- Plant response rating, Russian Thistle ([1]; 250 g ai/ha, scale 0 to 100): 80
- Plant response rating, Lambsquarters [2, 16]: 0
- Plant response rating, Lambsquarters [2, 17]: 0
- Plant response rating, Lambsquarters [2, 18]: 0
- Plant response rating, Lambsquarters [2, 19]: 0
- Plant response rating, Lambsquarters [2, 20]: 0
- Plant response rating, Lambsquarters [2, 21]: 0
- Plant response rating, Lambsquarters [2, 22]: 0
- Plant response rating, Lambsquarters [2, 23]: 0
- Plant response rating, Ragweed [3, 16]: 0
- Plant response rating, Ragweed [3, 17]: 0
- Plant response rating, Ragweed [3, 18]: 0
- Plant response rating, Ragweed [3, 19]: 40
- Plant response rating, Ragweed [3, 20]: 0
- Plant response rating, Ragweed [3, 21]: 0
- Plant response rating, Ragweed [3, 22]: 0
- Plant response rating, Ragweed [3, 23]: 0
- Plant response rating, Ryegrass, Italian [4, 16]: 98
- Plant response rating, Ryegrass, Italian [4, 17]: 100
- Plant response rating, Ryegrass, Italian [4, 18]: 100
- Plant response rating, Ryegrass, Italian [4, 19]: 100
- Plant response rating, Ryegrass, Italian [4, 20]: 70
- Plant response rating, Ryegrass, Italian [4, 21]: 100
- Plant response rating, Ryegrass, Italian [4, 22]: 100
- Plant response rating, Ryegrass, Italian [4, 23]: 100
- Plant response rating, Cocklebur [5, 16]: 0
- Plant response rating, Cocklebur [5, 17]: 0
- Plant response rating, Cocklebur [5, 18]: 0
- Plant response rating, Cocklebur [5, 19]: 0
- Plant response rating, Cocklebur [5, 20]: 0
- Plant response rating, Cocklebur [5, 21]: 0
- Plant response rating, Cocklebur [5, 22]: 0
- Plant response rating, Cocklebur [5, 23]: 10
- Plant response rating, Soybean [6, 16]: 0
- Plant response rating, Soybean [6, 17]: 0
- Plant response rating, Soybean [6, 18]: 0
- Plant response rating, Soybean [6, 19]: 0
- Plant response rating, Soybean [6, 20]: 0
- Plant response rating, Soybean [6, 21]: 0
- Plant response rating, Soybean [6, 23]: 30
- Bermudagrass plant response rating ([7]; 250 g ai/ha): 100
- Plant response rating, Bermudagrass [7, 16]: 70
- Plant response rating, Bermudagrass [7, 17]: 100
- Plant response rating, Bermudagrass [7, 18]: 100
- Plant response rating, Bermudagrass [7, 19]: 100
- Plant response rating, Bermudagrass [7, 20]: 98
- Plant response rating, Bermudagrass [7, 21]: 98
- Plant response rating, Bermudagrass [7, 22]: 100
- Plant response rating, Crabgrass, Large [8, 16]: 90
- Plant response rating, Crabgrass, Large [8, 17]: 90
- Plant response rating, Crabgrass, Large [8, 18]: 98
- Plant response rating, Crabgrass, Large [8, 19]: 100
- Plant response rating, Crabgrass, Large [8, 20]: 85
- Plant response rating, Crabgrass, Large [8, 21]: 100
- Plant response rating, Crabgrass, Large [8, 22]: 100
- Plant response rating, Crabgrass, Large [8, 23]: 100
- Plant response rating, Velvetleaf [9, 16]: 0
- Plant response rating, Velvetleaf [9, 17]: 0
- Plant response rating, Velvetleaf [9, 18]: 0
- Plant response rating, Velvetleaf [9, 19]: 0
- Plant response rating, Velvetleaf [9, 20]: 0
- Plant response rating, Velvetleaf [9, 21]: 0
- Plant response rating, Velvetleaf [9, 23]: 0
- Plant response rating, Goosegrass [10, 16]: 45
- Plant response rating, Goosegrass [10, 17]: 60
- Plant response rating, Goosegrass [10, 18]: 90
- Plant response rating, Goosegrass [10, 19]: 100
- Plant response rating, Goosegrass [10, 20]: 0
- Plant response rating, Goosegrass [10, 21]: 90
- Plant response rating, Goosegrass [10, 22]: 90
- Plant response rating, Goosegrass [10, 23]: 100
- Plant response rating, Sedge, Umbrella [11, 24]: 50
- Plant response rating, Sedge, Umbrella [11, 25]: 60
- Plant response rating, Sedge, Umbrella [11, 26]: 70
- Plant response rating, Sedge, Umbrella [11, 27]: 0
- Plant response rating, Barnyardgrass [12, 24]: 15
- Plant response rating, Barnyardgrass [12, 25]: 40
- Plant response rating, Barnyardgrass [12, 26]: 60
- Plant response rating, Barnyardgrass [12, 27]: 0
- Plant response rating, Rice [13, 24]: 0
- Plant response rating, Rice [13, 25]: 15
- Plant response rating, Rice [13, 26]: 70
- Plant response rating, Rice [13, 27]: 0
- Plant response rating, Ducksalad [14, 24]: 0
- Plant response rating, Ducksalad [14, 25]: 80
- Plant response rating, Ducksalad [14, 26]: 100
- Plant response rating, Ducksalad [14, 27]: 0

Compound: CCc1cc(-c2ccc(C(F)(F)F)cc2)nn1-c1c(O)c(C)nn(C)c1=O [Compound 16]
- Plant response rating, Russian Thistle [1, 15]: 0
- Plant response rating, Russian Thistle ([1]; 62 g ai/ha, scale 0 to 100): 0
- Plant response rating, Russian Thistle ([1]; 125 g ai/ha, scale 0 to 100): 0
- Plant response rating, Russian Thistle ([1]; 250 g ai/ha, scale 0 to 100): 0
- Plant response rating, Lambsquarters [2, 16]: 0
- Plant response rating, Lambsquarters [2, 17]: 0
- Plant response rating, Lambsquarters [2, 18]: 0
- Plant response rating, Lambsquarters [2, 19]: 0
- Plant response rating, Ragweed [3, 16]: 0
- Plant response rating, Ragweed [3, 17]: 0
- Plant response rating, Ragweed [3, 18]: 0
- Plant response rating, Ragweed [3, 19]: 0
- Plant response rating, Ragweed [3, 20]: 0
- Plant response rating, Ragweed [3, 21]: 0
- Plant response rating, Ragweed [3, 22]: 0
- Plant response rating, Ragweed [3, 23]: 0
- Plant response rating, Ryegrass, Italian [4, 16]: 100
- Plant response rating, Ryegrass, Italian [4, 17]: 100
- Plant response rating, Ryegrass, Italian [4, 18]: 100
- Plant response rating, Ryegrass, Italian [4, 19]: 100
- Plant response rating, Ryegrass, Italian [4, 20]: 100
- Plant response rating, Ryegrass, Italian [4, 21]: 100
- Plant response rating, Ryegrass, Italian [4, 22]: 100
- Plant response rating, Ryegrass, Italian [4, 23]: 100
- Plant response rating, Cocklebur [5, 16]: 0
- Plant response rating, Cocklebur [5, 17]: 0
- Plant response rating, Cocklebur [5, 18]: 0
- Plant response rating, Cocklebur [5, 19]: 0
- Plant response rating, Cocklebur [5, 20]: 0
- Plant response rating, Cocklebur [5, 21]: 0
- Plant response rating, Cocklebur [5, 22]: 0
- Plant response rating, Cocklebur [5, 23]: 0
- Plant response rating, Soybean [6, 16]: 0
- Plant response rating, Soybean [6, 17]: 0
- Plant response rating, Soybean [6, 18]: 0
- Plant response rating, Soybean [6, 19]: 0
- Plant response rating, Soybean [6, 23]: 0
- Bermudagrass plant response rating ([7]; 250 g ai/ha): 100
- Plant response rating, Bermudagrass [7, 16]: 65
- Plant response rating, Bermudagrass [7, 17]: 100
- Plant response rating, Bermudagrass [7, 18]: 100
- Plant response rating, Bermudagrass [7, 19]: 100
- Plant response rating, Bermudagrass [7, 20]: 0
- Plant response rating, Bermudagrass [7, 21]: 0
- Plant response rating, Bermudagrass [7, 22]: 98
- Plant response rating, Crabgrass, Large [8, 16]: 95
- Plant response rating, Crabgrass, Large [8, 17]: 95
- Plant response rating, Crabgrass, Large [8, 18]: 100
- Plant response rating, Crabgrass, Large [8, 19]: 100
- Plant response rating, Crabgrass, Large [8, 20]: 0
- Plant response rating, Crabgrass, Large [8, 21]: 0
- Plant response rating, Crabgrass, Large [8, 22]: 20
- Plant response rating, Crabgrass, Large [8, 23]: 40
- Plant response rating, Velvetleaf [9, 16]: 0
- Plant response rating, Velvetleaf [9, 17]: 0
- Plant response rating, Velvetleaf [9, 18]: 0
- Plant response rating, Velvetleaf [9, 19]: 0
- Plant response rating, Velvetleaf [9, 20]: 0
- Plant response rating, Velvetleaf [9, 21]: 0
- Plant response rating, Velvetleaf [9, 22]: 0
- Plant response rating, Velvetleaf [9, 23]: 0
- Plant response rating, Goosegrass [10, 16]: 60
- Plant response rating, Goosegrass [10, 17]: 65
- Plant response rating, Goosegrass [10, 18]: 75
- Plant response rating, Goosegrass [10, 19]: 80
- Plant response rating, Goosegrass [10, 20]: 0
- Plant response rating, Goosegrass [10, 21]: 0
- Plant response rating, Goosegrass [10, 22]: 50
- Plant response rating, Goosegrass [10, 23]: 60
- Plant response rating, Sedge, Umbrella [11, 24]: 30
- Plant response rating, Sedge, Umbrella [11, 25]: 30
- Plant response rating, Sedge, Umbrella [11, 26]: 45
- Plant response rating, Sedge, Umbrella [11, 27]: 0
- Plant response rating, Barnyardgrass [12, 24]: 20
- Plant response rating, Barnyardgrass [12, 25]: 40
- Plant response rating, Barnyardgrass [12, 26]: 60
- Plant response rating, Barnyardgrass [12, 27]: 15
- Plant response rating, Rice [13, 24]: 20
- Plant response rating, Rice [13, 25]: 45
- Plant response rating, Rice [13, 26]: 80
- Plant response rating, Rice [13, 27]: 0
- Plant response rating, Ducksalad [14, 24]: 0
- Plant response rating, Ducksalad [14, 25]: 0
- Plant response rating, Ducksalad [14, 26]: 0
- Plant response rating, Ducksalad [14, 27]: 0
